Here are results for 3 compounds from patent US9642874B2, “Compositions of selenoorganic compounds and methods of use thereof” (Alltech, Inc., priority 2014, dated 2017).

In one experiment the test system is Foxo3. Briefly: Western blot of Foxo3 / pFoxo3T32 in AML-12 cells. It is filed as cell-based, mouse. The settings on record: individual compound, 150 ppb, serum-containing media, 6 hours and 24 hours. The method, then:
(§1) For the studies of protein expression, AML-12 cells were amplified in ITS, Dex and FBS-containing DMEM/F12 media, and cultured on 6-well (3.33×10^5 cells/well) plates in 10% FBS ITS-free DMEM/F12 media with or without Dex overnight. These cells were treated with control (water) or various compounds in either serum containing (10% FBS ITS-free DMEM/F12 media supplemented with Dex) or serum-free (ITS/Dex-free DMEM/F12 media) for 6 hours and 24 hours. In addition, human neuroblast IMR-32 cells were cultured in 10% FBS EMEM media and then treated with control (water), selenium compounds and their sulfur analogs in the same serum-containing media for 6 hours and 24 hours.
(§2) AML-12 liver cells or IMR-32 neuronal cells were seeded on 6-well plates, and then treated with vehicle and various compounds for 6 hours and 24 hours, as described herein. […] Protein levels in the supernatant of these cell lysates were determined using the Pierce Micro-BCA protein assay kit (Thermo Scientific-Piece Biotechnology, Rockford, Ill.) according to the manufacturer's protocol. […]
(§3) All primary antibodies except Actb (Li-COR, Lincoln, Nebr.), Elf2bε and pElf2bε (Abcam, Cambridge, Mass.) were purchased from Cell Signaling Inc. Positive signals on the membrane blots were detected using the Amersham's enhanced chemiluminescence Western Blotting Prime Detection reagents (GE healthcare Lifescience, Pittsburgh, Pa.). Images of luminescence signals on the membrane blots were captured using the LI-COR Odyssey Fc Image system (Lincoln, Nebr.). […] Protein band densities in the Western blots were determined using the Li-COR Image studio software or NIH ImageJ software and then normalized by Actb level in each sample. […]
(§4) To determine if the combination of Compounds CDE can regulate FOXO phosphorylation in the liver, AML-12 cells were treated with control, and 150 ppb of selenium Compounds CDE, and their sulfur analogs, 150 ppb of Compounds HIJ, in serum- and Dex-containing media but without ITS for 6 hours. […] Quantitative data of protein expression in Western blots are presented as mean±SEM of 3 samples. […]

Another experiment has as its system Foxo4. The experiment is described as follows: Western blot of Foxo4 / pFoxo4T28 in AML-12 cells. It is filed as cell-based, mouse. The settings on record: individual compound, 150 ppb, serum-containing media, 6 hours and 24 hours. The method, then: as §1, §2, §3, §4
For orientation: In western blotting, separated proteins are transferred to a membrane and probed.

On to `C[Se]C[C@H]1O[C@@H](n2cnc3c(N)ncnc32)C(O)C1O` (stereo in doubt) [Compound C, 5′-Methylselenoadenosine], for which, in the experiment on Foxo3, the pFoxo3T32 protein levels entry is “No change”. In addition, in the experiment on Foxo4, the pFoxo4T28 protein levels entry is given as “No change”.
Regarding `Nc1ncnc2c1ncn2[C@@H]1O[C@H](C[Se]CC[C@@H](N)C(=O)O)C(O)C1O` (stereo partly drawn) [Compound D, 5′-Selenoadenosyl homocysteine], in the experiment with Foxo3, the pFoxo3T32 protein levels result is recorded as “No change”. In addition, the pFoxo4T28 protein levels result with Foxo4 was “No change”.
Turning to `C[Se]C[C@H](NC(=O)CC[C@H](N)C(=O)O)C(=O)O` [Compound E, γ-L-glutamyl-Se-methyl-L-selenocysteine], the pFoxo3T32 protein levels result with Foxo3 is “No change”. In addition, the pFoxo4T28 protein levels result in the experiment on Foxo4 is given as “No change”.
